Results taken from US20130344026A1, “Dimeric Smac Mimetics” (priority 2009, published 2013).
Where two headings read alike, the source gives them in different places.

System: PANC-1 cells
Experiment: cell viability assay in PANC-1 cells (compound alone, + 100 ng/ml TNFa, + 300 ng/ml TRAIL)
Type: cell-based
[1] = Homo sapiens, PANC-1 cells, compound alone, read-out: IC50 (uM) in cell viability assay in PANC-1 cells, Cmpnd alone
[2] = PANC-1 cells, + 100 ng/ml TNFa, read-out: IC50 (uM) in cell viability assay in PANC-1 cells, Cmpnd + 100 ng/ml TNFa
[3] = PANC-1 cells, + 300 ng/ml TRAIL, read-out: IC50 (uM) in cell viability assay in PANC-1 cells, Cmpnd + 300 ng/ml TRAIL
[4] = compound alone, Tables 6-10, read-out: IC50 (μM) in cell viability assay in PANC-1 cells: Compound alone
[5] = with 100 ng/ml TNFa, Tables 6-10, read-out: IC50 (μM) in cell viability assay in PANC-1 cells: Compound + 100 ng/ml TNFa
[6] = with 300 ng/ml TRAIL, Tables 6-10, read-out: IC50 (μM) in cell viability assay in PANC-1 cells: Compound + 300 ng/ml TRAIL
[7] = Homo sapiens, PANC-1, compound alone, Tables 15-18, read-out: IC50 (uM) in cell viability assay in PANC-1 cells: Cmpnd alone
[8] = Homo sapiens, PANC-1, compound alone, Tables 6-10, read-out: IC50 (μM) in cell viability assay in PANC-1 cells: Compound alone

IC50 [8] [µM]	Structure (SMILES)	IC50 [5] [µM]	IC50 [6] [µM]	other results
–	CN[C@@H](C)C(=O)N[C@H](C(=O)N1C[C@@H](NC(=O)c2nc[nH]c2C(=O)N[C@H]2C[C@@H](C(=O)N[C@H](C)c3ccccc3)N(C(=O)[C@@H](NC(=O)[C@H](C)NC)C(C)(C)C)C2)C[C@H]1C(=O)N[C@H](C)c1ccccc1)C(C)(C)C [Compound P3-92]	–	–	IC50 [1]: > 1 µM; IC50 [2]: 0.099 µM; IC50 [3]: 0.072 µM
–	CN[C@@H](C)C(=O)N[C@H](C(=O)N1C[C@@H](NC(=O)c2cccc(C(=O)N[C@H]3C[C@@H](C(=O)NC4CCSc5ccccc54)N(C(=O)[C@@H](NC(=O)[C@H](C)NC)C(C)(C)C)C3)c2)C[C@H]1C(=O)NC1CCSc2ccccc21)C(C)(C)C (single isomer, unassigned) [Compound 68]	0.029	0.019	IC50 [4]: > 1 µM
–	CN[C@@H](C)C(=O)N[C@H](C(=O)N1CCC[C@H]1c1nc(C(=O)NCCC#CC#CCCNC(=O)c2nc([C@@H]3CCCN3C(=O)[C@@H](NC(=O)[C@H](C)NC)C(C)(C)C)oc2-c2c[nH]c3ccccc23)c(-c2c[nH]c3ccccc23)o1)C(C)(C)C [Compound P4-24]	–	–	IC50 [7]: > 1 µM
–	CN[C@@H](C)C(=O)N[C@@H](CCC(=O)Nc1ccc(C#Cc2ccc(NC(=O)CC[C@H](NC(=O)[C@H](C)NC)C(=O)N3CCC[C@H]3C(=O)N[C@@H]3CCCc4ccccc43)cc2)cc1)C(=O)N1CCC[C@H]1C(=O)N[C@@H]1CCCc2ccccc21 [Compound P3-98]	–	–	IC50 [1]: > 1 µM; IC50 [2]: 0.01 µM; IC50 [3]: 0.012 µM
> 1	CN[C@@H](C)C(=O)N[C@@H](CCCCCC[C@H](NC(=O)[C@H](C)NC)C(=O)N1Cc2ccccc2C[C@H]1C(=O)N[C@H](C)c1ccccc1)C(=O)N1Cc2ccccc2C[C@H]1C(=O)N[C@H](C)c1ccccc1 [Compound 96]	0.211	0.417	–
–	CN[C@@H](C)C(=O)N[C@H](C(=O)N1C[C@@H](NC(=O)c2cccc(C(=O)N[C@H]3C[C@@H](C(=O)N[C@@H]4CCCc5ccc(Br)cc54)N(C(=O)[C@@H](NC(=O)[C@H](C)NC)C(C)(C)C)C3)c2)C[C@H]1C(=O)N[C@@H]1CCCc2ccc(Br)cc21)C(C)(C)C (single isomer, unassigned) [Compound 63]	0.143	0.162	IC50 [4]: > 1 µM
–	CN[C@@H](C)C(=O)N[C@H](C(=O)N1C[C@@H](NC(=O)c2cccc(C(=O)N[C@H]3C[C@@H](C(=O)N[C@H](CO)c4ccccc4)N(C(=O)[C@@H](NC(=O)[C@H](C)NC)C(C)(C)C)C3)c2)C[C@H]1C(=O)N[C@H](CO)c1ccccc1)C(C)(C)C [Compound P3-99]	–	–	IC50 [1]: > 1 µM; IC50 [2]: 0.062 µM; IC50 [3]: 0.054 µM
> 1	CN[C@@H](C)C(=O)N[C@H](C(=O)N[C@@H](CCNC(=O)CC[C@H](NC(=O)[C@@H](NC(=O)[C@H](C)NC)C(C)(C)C)C(=O)N[C@@H]1CCCc2ccccc21)C(=O)N[C@H](C)C(C)C)C(C)C [Compound 166]	0.994	> 1	–
> 1	CN[C@@H](C)C(=O)N[C@H](C(=O)N1CCC[C@H]1Cn1nnnc1Sc1ccccc1)[C@@H](C)OCC#Cc1cccc(C#CCO[C@@H](C)[C@@H](NC(=O)[C@@H](C)NC)C(=O)N2CCC[C@@H]2Cn2nnnc2Sc2ccccc2)c1 [Compound 116]	0.0046	0.0059	–
> 1	CN[C@@H](C)C(=O)N[C@H](C(=O)N1CCC[C@H]1Cn1cnnc1Cc1ccccc1)[C@@H](C)OCC#CC#CCO[C@H](C)[C@H](NC(=O)[C@H](C)NC)C(=O)N1CCC[C@H]1Cn1cnnc1Cc1ccccc1 [Compound 80]	> 1	> 1	–
–	CN[C@@H](C)C(=O)N[C@H](C(=O)N1C[C@@H](NC(=O)c2ccc(C(=O)N[C@H]3C[C@@H](C(=O)N[C@@H]4CCCc5ccccc54)N(C(=O)[C@@H](NC(=O)[C@H](C)NC)C(C)(C)C)C3)nc2)C[C@H]1C(=O)N[C@@H]1CCCc2ccccc21)C(C)(C)C [Compound P3-94]	–	–	IC50 [1]: > 1 µM; IC50 [2]: 0.003 µM; IC50 [3]: 0.006 µM
–	CN[C@@H](C)C(=O)N[C@H](C(=O)N1C[C@@H](Oc2cccc(CCCCc3cccc(O[C@H]4C[C@@H](C(=O)N[C@@H]5CCCc6ccccc65)N(C(=O)[C@@H](NC(=O)[C@H](C)NC)C(C)(C)C)C4)c3)c2)C[C@H]1C(=O)N[C@@H]1CCCc2ccccc21)C(C)(C)C [Compound P3-104]	–	–	IC50 [1]: > 1 µM; IC50 [2]: 0.042 µM; IC50 [3]: 0.042 µM
> 1	CC[C@H](NC(=O)[C@H](C)NC)C(=O)N[C@@H](CCNC(=O)c1cccc(C(=O)N[C@H]2C[C@@H](C(=O)N[C@@H]3CCCc4ccccc43)N(C(=O)[C@@H](NC(=O)[C@H](C)NC)C(C)(C)C)C2)c1)C(=O)N[C@H](C)c1ccccc1 [Compound 177]	0.035	0.05	–
> 1	CCC1(NC(=O)[C@@H]2C[C@H](NC(=O)c3cc(C(=O)N[C@H]4C[C@@H](C(=O)NC5(CC)CCCc6ccccc65)N(C(=O)[C@@H](NC(=O)[C@H](C)NC)C(C)(C)C)C4)[nH]n3)CN2C(=O)[C@@H](NC(=O)[C@H](C)NC)C(C)(C)C)CCCc2ccccc21 (stereo partly shown) [Compound 52]	0.046	0.052	–
> 1	CN[C@@H](C)C(=O)N[C@H](C(=O)N1C[C@@H](NC(=O)CCc2ccc(C(=O)N[C@H]3C[C@@H](C(=O)N[C@@H]4CCCc5ccccc54)N(C(=O)[C@@H](NC(=O)[C@H](C)NC)C(C)(C)C)C3)cc2)C[C@H]1C(=O)N[C@@H]1CCCc2ccccc21)C(C)(C)C [Compound 191]	0.013	0.012	–
–	CN[C@@H](C)C(=O)N[C@@H](CC(=O)NCC=CC=CCNC(=O)C[C@H](NC(=O)[C@H](C)NC)C(=O)N1CCC[C@H]1C(=O)N[C@@H]1CCCc2ccccc21)C(=O)N1CCC[C@H]1C(=O)N[C@@H]1CCCc2ccccc21 [Compound P2-42]	–	–	IC50 [7]: > 1 µM; IC50 (with 100 ng/ml TNFa, Tables 15-18, read-out: IC50 (uM) in cell viability assay in PANC-1 cells: Cmpnd + 100 ng/ml TNFa): 0.091 µM; IC50 (with 300 ng/ml TRAIL, Tables 15-18, read-out: IC50 (uM) in cell viability assay in PANC-1 cells: Cmpnd + 300 ng/ml TRAIL): 0.148 µM
> 1	CN[C@@H](C)C(=O)N[C@H](C(=O)N1C[C@@H](NC(=O)c2cccc(C(=O)N[C@H]3C[C@@H](C(=O)N[C@@H]4CCCc5cc(OC)ccc54)N(C(=O)[C@@H](NC(=O)[C@H](C)NC)C(C)(C)C)C3)c2)C[C@H]1C(=O)N[C@@H]1CCCc2cc(OC)ccc21)C(C)(C)C [Compound 45]	0.008	0.014	–
> 1	CN[C@@H](C)C(=O)N[C@@H](CC#CC#CC[C@H](NC(=O)[C@H](C)NC)C(=O)N1Cc2ccccc2C[C@H]1C(=O)N[C@H](C)c1ccccc1)C(=O)N1Cc2ccccc2C[C@H]1C(=O)N[C@H](C)c1ccccc1 [Compound 95]	> 1	> 1	–

Structure (SMILES)	IC50 [8] [µM]	IC50 [5] [µM]	IC50 [6] [µM]	other results
CN[C@@H](C)C(=O)N[C@@H](CCCCCC[C@H](NC(=O)[C@H](C)NC)C(=O)N1CCC[C@H]1CC(=O)N[C@H](C)c1ccccc1)C(=O)N1CCC[C@H]1CC(=O)N[C@H](C)c1ccccc1 [Compound 79]	> 1	> 1	> 1	–
CC[C@@H](NC(=O)[C@@H]1C[C@H](NC(=O)c2cccc(C(=O)N[C@H]3C[C@@H](C(=O)N[C@H](CC)c4ccccc4)N(C(=O)[C@@H](NC(=O)[C@H](C)NC)C(C)(C)C)C3)c2)CN1C(=O)[C@@H](NC(=O)[C@H](C)NC)C(C)(C)C)c1ccccc1 [Compound 1]	> 1	0.0023	0.0019	–
CN[C@@H](C)C(=O)N[C@H](C(=O)N1C[C@@H](NC(=O)c2cccc(C(=O)N[C@H]3C[C@@H](C(=O)NCCc4ccc(N)cc4)N(C(=O)[C@@H](NC(=O)[C@H](C)NC)C(C)(C)C)C3)c2)C[C@H]1C(=O)NCCc1ccc(N)cc1)C(C)(C)C [Compound 4]	> 1	> 1	0.739	–
CN[C@@H](C)C(=O)N[C@H](C(=O)N1C[C@@H](NC(=O)c2cccc(C(=O)N[C@H]3C[C@@H](C(=O)NC4CCCc5cccc(F)c54)N(C(=O)[C@@H](NC(=O)[C@H](C)NC)C(C)(C)C)C3)c2)C[C@H]1C(=O)NC1CCCc2cccc(F)c21)C(C)(C)C (single isomer, unassigned) [Compound 70]	> 1	0.0011	0.0033	–
CN[C@@H](C)C(=O)N[C@H](C(=O)N1C[C@@H](NC(=O)c2cccc(C(=O)N[C@H]3C[C@@H](C(=O)N[C@@H]4CCCc5ccc(Br)cc54)N(C(=O)[C@@H](NC(=O)[C@H](C)NC)C(C)(C)C)C3)c2)C[C@H]1C(=O)N[C@@H]1CCCc2ccc(Br)cc21)C(C)(C)C (single isomer, unassigned) [Compound 62]	> 1	0.107	0.099	–
CN[C@@H](C)C(=O)N[C@H](C(=O)N1CCC[C@H]1C(=O)N[C@H]1c2ccccc2C[C@@H]1OC(=O)CCCC(=O)O[C@H]1Cc2ccccc2[C@@H]1NC(=O)[C@@H]1CCCN1C(=O)[C@@H](NC(=O)[C@H](C)NC)C(C)(C)C)C(C)(C)C [Compound 118]	> 1	0.0007	0.0008	–
CN[C@@H](C)C(=O)N[C@H](C(=O)N1C[C@@H](NC(=O)c2cccc(C(=O)N[C@H]3C[C@@H](C(=O)NC4CCCc5cc(F)ccc54)N(C(=O)[C@@H](NC(=O)[C@H](C)NC)C(C)(C)C)C3)c2)C[C@H]1C(=O)NC1CCCc2cc(F)ccc21)C(C)(C)C (single isomer, unassigned) [Compound 72]	> 1	0.0018	0.0033	–
